The source made the active and inactive calls. No cut-off for these calls is given here.
Assays:
[1] = target: Cyclin-dependent kinase 14/Cyclin-Y (Homo sapiens) (UniProt O94921+Q8ND76); experiment: Inhibition of human CDK14/cyclin-Y assessed as residual activity at 1 uM using RB protein as substrate by [gamma-33P]-ATP assay relative to control; format: protein-complex assay
[2] = target: Macrophage-stimulating protein receptor (Homo sapiens) (UniProt Q04912); experiment: Inhibition of human RON assessed as residual activity at 1 uM using KKSRGDYMTMQIG as substrate by [gamma-33P]-ATP assay relative to control
[3] = target: T1, Serine/threonine-protein kinase Chk1 (Homo sapiens) (UniProt O14757); experiment: Inhibition of CHK1 phosphorylation at S317 residue in human FOLFOX-resistant HT-29 cells after 24 hrs by Western blot analysis
T1 sequence (whole entry): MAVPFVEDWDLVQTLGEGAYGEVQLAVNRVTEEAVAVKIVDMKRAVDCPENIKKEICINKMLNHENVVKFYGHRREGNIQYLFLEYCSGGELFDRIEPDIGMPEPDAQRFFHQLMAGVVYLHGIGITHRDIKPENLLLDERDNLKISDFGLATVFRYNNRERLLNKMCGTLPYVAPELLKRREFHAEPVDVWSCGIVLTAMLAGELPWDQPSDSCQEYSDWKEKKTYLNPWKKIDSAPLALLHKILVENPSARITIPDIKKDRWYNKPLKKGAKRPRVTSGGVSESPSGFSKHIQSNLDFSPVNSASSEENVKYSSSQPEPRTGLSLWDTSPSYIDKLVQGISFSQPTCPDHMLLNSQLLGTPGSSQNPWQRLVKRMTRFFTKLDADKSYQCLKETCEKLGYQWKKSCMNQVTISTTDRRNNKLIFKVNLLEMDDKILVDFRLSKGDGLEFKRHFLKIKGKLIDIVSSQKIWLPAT

[4] = target: T1, Serine/threonine-protein kinase Chk1 (Homo sapiens); experiment: Inhibition of CHK1 phosphorylation at S317 residue in human FOLFOX-resistant HCT116 cells after 24 hrs by Western blot analysis
[5] = target: Calcium/calmodulin-dependent protein kinase type IV (Homo sapiens) (UniProt Q16566); experiment: Inhibition of human CAMK4 assessed as residual activity at 1 uM using KKLNRTLSFAEPG as substrate by [gamma-33P]-ATP assay relative to control
[6] = target: Protein kinase C epsilon type (Homo sapiens) (UniProt Q02156); experiment: Inhibition of human PKCepsilon assessed as residual activity at 1 uM using ERMRPRKRQGSVRRRV as substrate by [gamma-33P]-ATP assay relative to control
Protein kinase C epsilon type (Homo sapiens), sequence (Q02156 whole entry): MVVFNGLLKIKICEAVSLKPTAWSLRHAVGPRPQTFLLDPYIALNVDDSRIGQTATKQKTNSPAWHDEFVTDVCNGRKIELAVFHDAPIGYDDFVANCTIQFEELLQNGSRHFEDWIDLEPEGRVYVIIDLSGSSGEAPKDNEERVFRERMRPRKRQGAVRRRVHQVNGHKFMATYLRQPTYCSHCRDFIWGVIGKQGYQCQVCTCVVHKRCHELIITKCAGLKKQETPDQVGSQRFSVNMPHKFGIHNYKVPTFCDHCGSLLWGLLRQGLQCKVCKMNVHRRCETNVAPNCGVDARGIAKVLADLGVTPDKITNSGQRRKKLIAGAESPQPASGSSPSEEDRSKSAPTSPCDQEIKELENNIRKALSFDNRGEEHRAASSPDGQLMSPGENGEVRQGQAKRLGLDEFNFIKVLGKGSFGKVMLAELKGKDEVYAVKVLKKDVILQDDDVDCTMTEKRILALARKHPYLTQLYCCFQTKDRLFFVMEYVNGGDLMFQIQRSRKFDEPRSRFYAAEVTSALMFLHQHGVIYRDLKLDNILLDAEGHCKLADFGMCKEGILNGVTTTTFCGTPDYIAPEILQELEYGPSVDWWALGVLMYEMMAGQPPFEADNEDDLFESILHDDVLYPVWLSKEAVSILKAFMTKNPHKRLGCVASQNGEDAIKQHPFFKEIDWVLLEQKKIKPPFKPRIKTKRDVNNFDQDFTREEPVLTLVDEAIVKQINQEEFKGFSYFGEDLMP

[7] = target: Serine/threonine-protein kinase TAO3 (Homo sapiens) (UniProt Q9H2K8); experiment: Inhibition of human TAOK3 assessed as residual activity at 1 uM using MBP as substrate by [gamma-33P]-ATP assay relative to control
Serine/threonine-protein kinase TAO3 (Homo sapiens), sequence (Q9H2K8 whole entry): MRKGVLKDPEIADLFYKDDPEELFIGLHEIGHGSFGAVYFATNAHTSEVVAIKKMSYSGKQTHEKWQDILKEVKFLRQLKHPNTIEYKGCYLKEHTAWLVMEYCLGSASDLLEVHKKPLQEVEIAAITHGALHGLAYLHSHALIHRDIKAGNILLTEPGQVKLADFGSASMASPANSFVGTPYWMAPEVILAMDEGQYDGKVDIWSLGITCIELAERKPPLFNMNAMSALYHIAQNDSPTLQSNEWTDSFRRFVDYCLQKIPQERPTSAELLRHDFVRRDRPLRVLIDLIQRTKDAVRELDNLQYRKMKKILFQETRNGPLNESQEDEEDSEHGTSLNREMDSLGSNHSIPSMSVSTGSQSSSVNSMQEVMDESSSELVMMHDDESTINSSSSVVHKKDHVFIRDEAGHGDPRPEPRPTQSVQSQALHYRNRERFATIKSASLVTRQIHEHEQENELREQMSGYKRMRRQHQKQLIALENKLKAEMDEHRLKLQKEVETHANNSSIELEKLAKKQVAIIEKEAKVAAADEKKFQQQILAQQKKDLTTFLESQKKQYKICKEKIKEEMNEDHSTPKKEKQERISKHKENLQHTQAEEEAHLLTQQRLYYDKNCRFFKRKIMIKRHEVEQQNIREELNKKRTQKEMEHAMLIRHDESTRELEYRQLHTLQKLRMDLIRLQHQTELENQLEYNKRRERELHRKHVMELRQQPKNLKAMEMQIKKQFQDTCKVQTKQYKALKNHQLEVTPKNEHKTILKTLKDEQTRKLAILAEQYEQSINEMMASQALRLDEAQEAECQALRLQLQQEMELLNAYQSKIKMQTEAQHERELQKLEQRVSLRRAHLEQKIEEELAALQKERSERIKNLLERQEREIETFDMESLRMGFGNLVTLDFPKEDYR

[8] = target: Serine/threonine-protein kinase STK11 (Homo sapiens) (UniProt Q15831); experiment: Inhibition of human LKB1 assessed as residual activity at 1 uM using LSNLYHQGKFLQTFCGSPLYRRR as substrate by [gamma-33P]-ATP assay relative to control
Serine/threonine-protein kinase STK11 (Homo sapiens), sequence (Q15831 whole entry): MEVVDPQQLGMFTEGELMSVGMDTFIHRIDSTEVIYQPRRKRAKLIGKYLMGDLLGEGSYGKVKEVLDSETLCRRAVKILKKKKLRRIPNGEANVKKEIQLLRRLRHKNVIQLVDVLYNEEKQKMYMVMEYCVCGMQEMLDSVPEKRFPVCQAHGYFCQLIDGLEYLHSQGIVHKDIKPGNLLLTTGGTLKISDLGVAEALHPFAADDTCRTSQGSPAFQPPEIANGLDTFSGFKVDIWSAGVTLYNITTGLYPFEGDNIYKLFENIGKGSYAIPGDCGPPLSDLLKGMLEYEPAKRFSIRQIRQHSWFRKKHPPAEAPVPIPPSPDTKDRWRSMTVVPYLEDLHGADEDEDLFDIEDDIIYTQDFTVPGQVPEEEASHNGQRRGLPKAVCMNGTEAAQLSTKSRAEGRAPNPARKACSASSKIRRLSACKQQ

[9] = target: Dual specificity protein kinase CLK4 (Homo sapiens) (UniProt Q9HAZ1); experiment: Inhibition of human CLK4 assessed as residual activity at 1 uM using MBP as substrate by [gamma-33P]-ATP assay relative to control
Dual specificity protein kinase CLK4 (Homo sapiens), sequence (Q9HAZ1 whole entry, looked up): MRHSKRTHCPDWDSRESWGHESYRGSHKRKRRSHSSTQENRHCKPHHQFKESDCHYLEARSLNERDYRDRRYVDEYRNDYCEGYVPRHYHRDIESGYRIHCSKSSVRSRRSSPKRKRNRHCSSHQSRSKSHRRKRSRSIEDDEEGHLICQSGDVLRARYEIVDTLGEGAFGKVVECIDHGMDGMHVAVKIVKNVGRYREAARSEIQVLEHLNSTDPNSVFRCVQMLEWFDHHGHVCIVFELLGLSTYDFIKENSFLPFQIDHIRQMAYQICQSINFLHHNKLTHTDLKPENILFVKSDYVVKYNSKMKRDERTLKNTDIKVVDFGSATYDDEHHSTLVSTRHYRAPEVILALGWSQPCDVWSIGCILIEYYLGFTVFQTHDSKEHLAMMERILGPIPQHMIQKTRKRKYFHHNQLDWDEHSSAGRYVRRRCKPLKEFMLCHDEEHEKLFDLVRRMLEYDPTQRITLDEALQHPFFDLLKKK

[10] = target: Serine/threonine-protein kinase 24 (Homo sapiens) (UniProt Q9Y6E0); experiment: Inhibition of human MST3 assessed as residual activity at 1 uM using MBP as substrate by [gamma-33P]-ATP assay relative to control
[11] = target: Mitogen-activated protein kinase kinase kinase 5 (Homo sapiens) (UniProt Q99683); experiment: Inhibition of human ASK1 assessed as residual activity at 1 uM using MBP as substrate by [gamma-33P]-ATP assay relative to control
[12] = target: Protein kinase C alpha type (Homo sapiens) (UniProt P17252); experiment: Inhibition of human PKCalpha assessed as residual activity at 1 uM using ERMRPRKRQGSVRRRV as substrate by [gamma-33P]-ATP assay relative to control
[13] = target: Dual specificity tyrosine-phosphorylation-regulated kinase 1A (Homo sapiens) (UniProt Q13627); experiment: Inhibition of human DYRK1A assessed as residual activity at 1 uM using RRRFRPASPLRGPPK as substrate by [gamma-33P]-ATP assay relative to control
[14] = target: Calcium/calmodulin-dependent protein kinase kinase 1 (Homo sapiens) (UniProt Q8N5S9); experiment: Inhibition of human CAMKK1 assessed as residual activity at 1 uM using MBP as substrate by [gamma-33P]-ATP assay relative to control
Calcium/calmodulin-dependent protein kinase kinase 1 (Homo sapiens), sequence (Q8N5S9 whole entry, looked up): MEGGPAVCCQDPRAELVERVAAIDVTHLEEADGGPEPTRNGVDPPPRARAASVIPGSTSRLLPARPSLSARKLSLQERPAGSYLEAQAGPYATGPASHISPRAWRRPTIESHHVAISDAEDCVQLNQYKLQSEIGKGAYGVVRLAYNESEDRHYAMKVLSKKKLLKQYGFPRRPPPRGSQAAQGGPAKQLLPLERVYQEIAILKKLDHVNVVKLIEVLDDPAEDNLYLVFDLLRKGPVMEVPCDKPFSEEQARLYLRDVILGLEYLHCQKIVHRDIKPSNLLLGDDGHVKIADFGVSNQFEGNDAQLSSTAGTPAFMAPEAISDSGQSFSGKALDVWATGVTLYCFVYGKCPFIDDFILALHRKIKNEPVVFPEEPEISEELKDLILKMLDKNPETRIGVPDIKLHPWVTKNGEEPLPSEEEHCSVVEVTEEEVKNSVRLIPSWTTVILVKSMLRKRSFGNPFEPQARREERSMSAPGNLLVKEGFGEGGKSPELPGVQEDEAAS

[15] = target: Casein kinase II subunit alpha (Homo sapiens, UniProt P68400); experiment: Inhibition of human CK2A assessed as residual activity at 1 uM using RRRDDDSDDD as substrate by [gamma-33P]-ATP assay relative to control
Casein kinase II subunit alpha, sequence (P68400 whole entry, looked up): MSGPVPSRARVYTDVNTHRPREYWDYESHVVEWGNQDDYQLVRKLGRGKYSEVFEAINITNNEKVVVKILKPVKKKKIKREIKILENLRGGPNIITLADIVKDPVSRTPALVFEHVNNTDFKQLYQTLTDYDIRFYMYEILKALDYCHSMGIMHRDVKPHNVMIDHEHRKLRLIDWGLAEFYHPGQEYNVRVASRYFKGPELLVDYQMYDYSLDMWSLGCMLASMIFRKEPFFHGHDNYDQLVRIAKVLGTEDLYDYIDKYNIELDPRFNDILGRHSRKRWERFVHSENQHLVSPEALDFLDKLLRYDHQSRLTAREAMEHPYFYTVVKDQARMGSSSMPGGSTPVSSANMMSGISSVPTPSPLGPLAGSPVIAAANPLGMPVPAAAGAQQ

[16] = target: MAP/microtubule affinity-regulating kinase 4 (Homo sapiens) (UniProt Q96L34); experiment: Inhibition of human MARK4 assessed as residual activity at 1 uM using KKKVSRSGLYRSPSMPENLNRPR as substrate by [gamma-33P]-ATP assay relative to control
MAP/microtubule affinity-regulating kinase 4 (Homo sapiens), sequence (Q96L34 whole entry): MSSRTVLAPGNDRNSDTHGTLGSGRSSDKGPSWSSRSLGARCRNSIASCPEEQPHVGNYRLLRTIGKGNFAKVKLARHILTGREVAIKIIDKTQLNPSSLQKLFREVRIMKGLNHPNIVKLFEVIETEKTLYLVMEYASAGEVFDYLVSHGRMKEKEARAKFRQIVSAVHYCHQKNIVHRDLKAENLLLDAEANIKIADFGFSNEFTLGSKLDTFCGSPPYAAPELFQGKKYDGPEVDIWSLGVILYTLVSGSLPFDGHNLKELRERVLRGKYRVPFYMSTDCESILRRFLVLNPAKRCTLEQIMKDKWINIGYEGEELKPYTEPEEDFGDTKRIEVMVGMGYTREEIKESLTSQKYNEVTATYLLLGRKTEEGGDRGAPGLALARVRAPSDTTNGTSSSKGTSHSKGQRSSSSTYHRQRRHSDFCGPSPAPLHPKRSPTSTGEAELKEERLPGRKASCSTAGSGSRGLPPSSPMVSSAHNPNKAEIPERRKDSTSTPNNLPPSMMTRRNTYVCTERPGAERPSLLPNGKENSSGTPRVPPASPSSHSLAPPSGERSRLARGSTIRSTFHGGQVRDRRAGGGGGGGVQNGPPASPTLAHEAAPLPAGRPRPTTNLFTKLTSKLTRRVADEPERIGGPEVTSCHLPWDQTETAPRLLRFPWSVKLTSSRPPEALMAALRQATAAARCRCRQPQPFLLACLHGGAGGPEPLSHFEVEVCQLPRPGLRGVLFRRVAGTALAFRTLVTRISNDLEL

[17] = target: T1, Serine/threonine-protein kinase Chk1 (Homo sapiens); experiment: Inhibition of hydroxyurea-induced CHK1 phosphorylation at S345 residue in human HCT116 cells at 20 uM treated for 8 hrs starting from 24 hrs post hydroxyurea addition by Western blot analysis; format: cell-based
[18] = target: Dual specificity protein kinase CLK2 (Homo sapiens) (UniProt P49760); experiment: Inhibition of human CLK2 assessed as residual activity at 1 uM using MBP as substrate by [gamma-33P]-ATP assay relative to control
[19] = target: Serine/threonine-protein kinase/endoribonuclease IRE1 (Homo sapiens) (UniProt O75460); experiment: Inhibition of human ERN1 assessed as residual activity at 1 uM using MBP as substrate by [gamma-33P]-ATP assay relative to control
[20] = target: Myosin-IIIb (Homo sapiens) (UniProt Q8WXR4); experiment: Inhibition of human MYO3B assessed as residual activity at 1 uM using MBP as substrate by [gamma-33P]-ATP assay relative to control
[21] = target: Leucine-rich repeat serine/threonine-protein kinase 2 (Homo sapiens) (UniProt Q5S007); experiment: Inhibition of human LRRK2 assessed as residual activity at 1 uM using RLGRDKYKTLRQIRQ as substrate by [gamma-33P]-ATP assay relative to control
[22] = target: MAP/microtubule affinity-regulating kinase 3 (Homo sapiens) (UniProt P27448); experiment: Inhibition of human MARK3 assessed as residual activity at 1 uM using KKKVSRSGLYRSPSMPENLNRPR as substrate by [gamma-33P]-ATP assay relative to control
[23] = target: CDK2/Cyclin A2 (Homo sapiens) (UniProt P24941+P20248); experiment: Inhibition of human CDK2/cyclin-A assessed as residual activity at 1 uM using histone H1 as substrate by [gamma-33P]-ATP assay relative to control; format: protein-complex assay
[24] = target: Casein kinase I isoform gamma-1 (Homo sapiens) (UniProt Q9HCP0); experiment: Inhibition of human CK1gamma1 assessed as residual activity at 1 uM using KRRRAL[pS]VASLPGL as substrate by [gamma-33P]-ATP assay relative to control

C(=C\c1ccccc1)/C[N+]12CN3CN(CN(C3)C1)C2
Activity [1]: 95.2 to 96.5% | Activity [2]: 93.3 to 94.8% | inhibition [3]: Dose-dependent effect | inhibition [4]: Dose-dependent effect | Activity [5]: 92.2 to 94.4% | Activity [6]: 121 to 126% | Activity [7]: 92.8 to 93.1% | Activity [8]: 89.2 to 92.2% | Activity [9]: 93.1 to 93.2% | Activity [10]: 107 to 112% | Activity [11]: 89.4 to 90.7% | Activity [12]: 94 to 95.2% | Activity [13]: 95.8 to 96.4% | Activity [14]: 91.5 to 93.2% | Activity [15]: 124 to 125% | Activity [16]: 93.8 to 96.3% | inhibition [17]: Active

ClC/C=C/C[N+]12CN3CN(CN(C3)C1)C2
Activity [18]: 93.9 to 94.5% | Activity [1]: 96.5 to 97.3% | inhibition [3]: Dose-dependent effect | inhibition [4]: Dose-dependent effect | Activity [19]: 92.5 to 94.8% | Activity [20]: 84.1 to 87.7% | Activity [6]: 121 to 133% | Activity [7]: 94.1 to 94.7% | Activity [21]: 91.5 to 93.5% | Activity [8]: 92 to 94.8% | Activity [9]: 86.9 to 91.8% | Activity [11]: 87.6 to 89% | Activity [12]: 93.9 to 94.3% | Activity [13]: 95.7 to 95.8% | Activity [22]: 148 to 153% | Activity [14]: 95.5 to 95.7% | Activity [15]: 124 to 125% | Activity [23]: 97.3 to 97.8% | Activity [16]: 90.2 to 95.2% | Activity [24]: 94.4 to 96.5%

Source: ChEMBL document CHEMBL4325871 (Eur J Med Chem, 2019)
